Test results from patent publication US5457030A, “Method and composition for determining antimicrobial susceptibility of the majority clinically significant Gram postitive organism” (MicroScan, Inc., priority 1993, dated 1995).
≈ marks a conversion by molar mass, not a printed value. Like-named read-outs stand apart in the source and are kept apart here.

Tests used:
Enterococcus faecalis [1] = test: Minimum inhibitory concentration determination, Example 1 (Table 7); type: cell-based
Method: (§1) A primary inoculum suspension of a bacterial isolate in saline-pluronic, equivalent to a 0.5 McFarland turbidity standard is prepared. The final inoculum suspension is prepared by diluting a 0.3 ml aliquot of the primary suspension in 25 ml of Rapid Pos Inoculum Broth (B1015-14, Baxter Diagnostics Inc., MicroScan Division, West Sacramento, Calif.). A 115 μl of the final inoculum is added to the growth compartment which contains dried material of fluorogenic enzyme substrates equivalent to 0.023 mM leucine-7-amido-4-methylcoumarin, 0.012 mM phenylalanine-7-amido-4-methylcoumarin and 0.058 mM methylumbelliferyl phosphate and 1.15 mM HEPES buffer at pH 7.0. The final inoculum is also added to a number of compartments containing dried material identical to that in the growth well and different concentrations of an antimicrobial agent. An aliquot of the final inoculum is also added to a compartment, containing only dried HEPES buffer, acting as a control. The inoculated multicompartment device (panel) is inserted in the autoSCAN®-W/A. The fluorescence of each compartment is measured at predetermined times and a Growth Index is calculated by dividing the fluorescence of the growth compartment by that of the negative control compartment.
(§2) If the value of the Growth Index is equal to or exceeds a specified value, the Minimum Inhibitory Concentration for every antimicrobial agent present in the multicompartment device is calculated. Otherwise the device is returned to its position and measured again at the next read time. The read times in this example are 3.5, 4.5, 5.5, 7.0, 8.0, 11.0, and 15.0 hours. For calculation of minimum inhibitory concentration, the percent fluorescence of compartments containing the different concentrations of the antimicrobial agent is calculated by subtracting from each compartment the fluorescence of the control well and dividing it by the delta fluorescence of the growth compartment, obtained by subtracting the fluorescence of the negative control compartment from the fluorescence of the growth compartment. The minimum inhibitory concentration is calculated using a mathematical model specific for each concentration range of the antimicrobial agent. Using a mathematical model based on discriminate functional analysis, the minimum inhibitory concentration of each antimicrobial agent, for the organism tested, can be determined. Utilization of a discriminate function analysis model in microbiological pattern recognition is described in S. Bascomb, Computers in Taxonomy and Systematics, p. 65-102 In T. N. Bryant and J. W. T. Wimpenny (Ed.), Computers in Microbiology, a Practical Approach (IRL Press, Oxford). In an alternative embodiment the minimum inhibitory concentration for each antimicrobial agent for the organism tested can be determined by a breakpoint or threshold method or linear regression analysis. J. McKie, et al., Antimicrobial Agents and Chemotherapy (1980) v. 17, 813-823.
(§3) In Example 1, the growth of Enterococcus faecalis in wells containing specified amounts of antimicrobial agents is estimated by measurement of fluorescence. In Table 6, the percent fluorescence at different concentrations of antimicrobial agents is reported. For example, 0.12, 0.25, 0.5, 1, 2, 4 and 8 μg/mL of ampicillin (Am) were present in the microdilution wells.
In Table 7, the minimum inhibitory concentration for Example 1 are reported.

Enterococcus faecalis [2] = test: Percent fluorescence (growth) in wells containing antimicrobial agents, Example 1 (Table 6); type: cell-based
Method: as §1
^FL growth - ^FL control
as §2, §3
The numbers 105, 105, 67, 7, 6, 5, 6 are percent fluorescence values as calculated in […]. These figures are used to determine susceptibility according to the methods discussed on pages 12 and 13.

[3] = Enterococcus faecalis, read-out: percent fluorescence
[4] = Enterococcus faecalis, read-out: concentration at which organism was found to be susceptible
[5] = Enterococcus faecalis, read-out: minimum inhibitory concentration
[6] = Enterococcus faecalis, Table 7, Example 1, read-out: concentration at which organism was found to be susceptible
[7] = Table 7, Enterococcus faecalis, Example 1, read-out: minimum inhibitory concentration
[8] = Enterococcus faecalis, 4 μg/mL, read-out: percent fluorescence
[9] = Enterococcus faecalis, 8 μg/mL, read-out: percent fluorescence
[10] = Enterococcus faecalis, 16 μg/mL, read-out: percent fluorescence
[11] = Enterococcus faecalis, Table 7, Example 1, read-out: concentration at which organism was found to be resistant
[12] = Enterococcus faecalis, 2 μg/mL, read-out: percent fluorescence

**Q.** What does the source list for `CN[C@@H]1[C@H](O[C@H]2[C@H](O[C@H]3[C@H](O)[C@@H](O)[C@H](N=C(N)N)[C@@H](O)[C@@H]3N=C(N)N)O[C@@H](C)[C@]2(O)C=O)O[C@@H](CO)[C@H](O)[C@H]1O` [Streptomycin Synergy Screen]?
**A.** Streptomycin Synergy Screen result in Table 7 (Enterococcus faecalis [1]; Table 7, Enterococcus faecalis, Example 1): 5; susceptibility to synergy screen (Enterococcus faecalis [1]; Table 7, Example 1): susceptible; percent fluorescence (Enterococcus faecalis [2]; synergy screen well): 5%

**Q.** How did the activity at 0.25 µg/mL (Enterococcus faecalis [2]; [3]) turn out when `Cc1onc(-c2ccccc2)c1C(=O)N[C@@H]1C(=O)N2[C@@H]1SC(C)(C)[C@@H]2C(=O)O` [Oxacillin] was run?
**A.** 103%

**Q.** And the activity at 0.5 µg/mL (Enterococcus faecalis [2]; [3])?
**A.** 98%

**Q.** What about the activity at 1 µg/mL (Enterococcus faecalis [2]; [3]) of the same molecule?
**A.** 100%

**Q.** What about the activity at 2 µg/mL (Enterococcus faecalis [2]; [3]) of the same molecule?
**A.** 99%

**Q.** What about the activity at 4 µg/mL (Enterococcus faecalis [2]; [3]) of the same molecule?
**A.** 95%

**Q.** What about the activity at 8 µg/mL (Enterococcus faecalis [2]; [3]) of the same molecule?
**A.** 90%

**Q.** Which results are given for `CC1(C)S[C@@H]2[C@H](NC(=O)Cc3ccccc3)C(=O)N2[C@H]1C(=O)O` [Penicillin]?
**A.** activity at 0.03 µg/mL (Enterococcus faecalis [2]; [3]): 99%; activity at 0.06 µg/mL (Enterococcus faecalis [2]; [3]): 104%; activity at 0.12 µg/mL (Enterococcus faecalis [2]; [3]): 105%; activity at 0.5 µg/mL (Enterococcus faecalis [2]; [3]): 105%; activity at 1 µg/mL (Enterococcus faecalis [2]; [3]): 93%; activity at 2 µg/mL (Enterococcus faecalis [2]; [3]): 12%; activity at 4 µg/mL (Enterococcus faecalis [2]; [3]): 7%; activity at 8 µg/mL (Enterococcus faecalis [2]; [3]): 7%; activity at 25 µg/mL (Enterococcus faecalis [2]; [3]): 105%

**Q.** What does the source list for `CC(=O)OCC1=C(C(=O)O)N2C(=O)[C@@H](NC(=O)Cc3cccs3)[C@H]2SC1` [Cephalothin, Cephalotin]?
**A.** MIC (Enterococcus faecalis [1]; [4]): 16 µg/mL (≈ 40.4 µM); MIC (Enterococcus faecalis [1]; [5]): 16 µg/mL (≈ 40.4 µM); activity at 8 µg/mL (Enterococcus faecalis [2]; [3]): 103%; activity at 16 µg/mL (Enterococcus faecalis [2]; [3]): 7%

**Q.** What does the source list for `CCn1cc(C(=O)O)c(=O)c2cc(F)c(N3CCNCC3)cc21` [Norfloxacin]?
**A.** MIC (Enterococcus faecalis [1]; [6]): < 4 µg/mL; MIC (Enterococcus faecalis [1]; [7]): < 4 µg/mL; activity at 4 µg/mL (Enterococcus faecalis [2]; [8]): 6%; activity at 8 µg/mL (Enterococcus faecalis [2]; [9]): 6%

**Q.** Which results are given for `O=C(O)c1cn(C2CC2)c2cc(N3CCNCC3)c(F)cc2c1=O` [Ciprofloxacin]?
**A.** MIC (Enterococcus faecalis [1]; [4]): < 1 µg/mL; MIC (Enterococcus faecalis [1]; [5]): < 1 µg/mL; activity at 1 µg/mL (Enterococcus faecalis [2]; [3]): 6%; activity at 2 µg/mL (Enterococcus faecalis [2]; [3]): 6%; activity at 4 µg/mL (Enterococcus faecalis [2]; [3]): 6%

**Q.** With `CN(C)C1C(=O)C(C(N)=O)=C(O)C2(O)C(=O)C3=C(O)c4c(O)cccc4C(C)(O)C3CC12` (centres unmarked) [Tetracycline] as the molecule, how does the MIC (Enterococcus faecalis [1]; [4]) read?
**A.** 128 µg/mL (≈ 288 µM)

**Q.** And the MIC (Enterococcus faecalis [1]; [5])?
**A.** 128 µg/mL (≈ 288 µM)

**Q.** And the activity at 0.5 µg/mL (Enterococcus faecalis [2]; [3])?
**A.** 91%

**Q.** And the activity at 1 µg/mL (Enterococcus faecalis [2]; [3])?
**A.** 85%

**Q.** And the activity at 2 µg/mL (Enterococcus faecalis [2]; [3])?
**A.** 79%

**Q.** What about the activity at 4 µg/mL (Enterococcus faecalis [2]; [3]) of the same molecule?
**A.** 71%

**Q.** What about the activity at 8 µg/mL (Enterococcus faecalis [2]; [3]) of the same molecule?
**A.** 62%

**Q.** What about the activity at 128 µg/mL (Enterococcus faecalis [2]; [3]) of the same molecule?
**A.** 37%

**Q.** For `CO/N=C(\C(=O)N[C@@H]1C(=O)N2C(C(=O)O)=C(COC(C)=O)CS[C@H]12)c1csc(N)n1` [Cefotaxime], which MIC (Enterococcus faecalis [1]; [6]) is on record?
**A.** < 4 µg/mL

**Q.** What about the MIC (Enterococcus faecalis [1]; [7]) of the same molecule?
**A.** > 4 µg/mL

**Q.** And the activity at 4 µg/mL (Enterococcus faecalis [2]; [8])?
**A.** 10%

**Q.** What about the activity at 8 µg/mL (Enterococcus faecalis [2]; [9]) of the same molecule?
**A.** 8%

**Q.** What about the activity at 16 µg/mL (Enterococcus faecalis [2]; [10]) of the same molecule?
**A.** 8%

**Q.** What about the activity at 32 µg/mL (Enterococcus faecalis [2]; Enterococcus faecalis, 32 μg/mL) of the same molecule?
**A.** 7%

**Q.** For Gentamicin, which percent fluorescence (Enterococcus faecalis [2]; 1 μg/mL) is on record?
**A.** 105%

**Q.** And the percent fluorescence (Enterococcus faecalis [2]; 2 μg/mL)?
**A.** 99%

**Q.** And the percent fluorescence (Enterococcus faecalis [2]; 4 μg/mL)?
**A.** 95%

**Q.** And the percent fluorescence (Enterococcus faecalis [2]; 6 μg/mL)?
**A.** 93%

**Q.** What about the percent fluorescence (Enterococcus faecalis [2]; 8 μg/mL) of the same molecule?
**A.** 93%

**Q.** How did the MIC (Enterococcus faecalis [1]; [11]) turn out when `CO/N=C(\C(=O)N[C@@H]1C(=O)N2C(C(=O)O)=C(COC(N)=O)CS[C@H]12)c1ccco1` [Cefuroxime] was run?
**A.** > 16 µg/mL

**Q.** And the MIC (Enterococcus faecalis [1]; [7])?
**A.** > 16 µg/mL

**Q.** And the activity at 2 µg/mL (Enterococcus faecalis [2]; [12])?
**A.** 85%

**Q.** And the activity at 4 µg/mL (Enterococcus faecalis [2]; [8])?
**A.** 39%

**Q.** And the activity at 8 µg/mL (Enterococcus faecalis [2]; [9])?
**A.** 15%

**Q.** And the activity at 16 µg/mL (Enterococcus faecalis [2]; [10])?
**A.** 10%

**Q.** For `Cc1nnc(SCC2=C(C(=O)O)N3C(=O)[C@@H](NC(=O)Cn4cnnn4)[C@H]3SC2)s1` [Cefazolin], which MIC (Enterococcus faecalis [1]; [11]) is on record?
**A.** > 16 µg/mL

**Q.** And the MIC (Enterococcus faecalis [1]; [7])?
**A.** > 16 µg/mL

**Q.** What about the activity at 2 µg/mL (Enterococcus faecalis [2]; [12]) of the same molecule?
**A.** 105%

**Q.** What about the activity at 4 µg/mL (Enterococcus faecalis [2]; [8]) of the same molecule?
**A.** 102%

**Q.** And the activity at 8 µg/mL (Enterococcus faecalis [2]; [9])?
**A.** 104%

**Q.** What about the activity at 16 µg/mL (Enterococcus faecalis [2]; [10]) of the same molecule?
**A.** 100%
